Where “and” joins values, the source holds several entries; their conditions need not be identical. Identical values can stand only once. Like-named read-outs stand apart in the source and are kept apart here. Blank lines part the entries; values can stand above or below the compound they belong to.
Assays:
Caco-2 cell monolayers = experiment: in vitro; format: in vitro ADME, human; details: for % Transport Absorptive direction (A–B) / % Transport Secretory direction (A–B): Caco-2 monolayers, 1% HPβCD, 2 h; for Intestinal permeability across Caco-2 monolayers (rating): relative to atenolol and propranolol
[1] = Phase I metabolic stability in human liver microsomes; format: in vitro ADME; details: pooled human liver microsomes; for Stability in HLM (Phase I): up to 180 min, words
CYP2C19 [2] = molecular target: T1, CYP2C19 (Homo sapiens, UniProt P33261)
T1 sequence (P33261 whole entry): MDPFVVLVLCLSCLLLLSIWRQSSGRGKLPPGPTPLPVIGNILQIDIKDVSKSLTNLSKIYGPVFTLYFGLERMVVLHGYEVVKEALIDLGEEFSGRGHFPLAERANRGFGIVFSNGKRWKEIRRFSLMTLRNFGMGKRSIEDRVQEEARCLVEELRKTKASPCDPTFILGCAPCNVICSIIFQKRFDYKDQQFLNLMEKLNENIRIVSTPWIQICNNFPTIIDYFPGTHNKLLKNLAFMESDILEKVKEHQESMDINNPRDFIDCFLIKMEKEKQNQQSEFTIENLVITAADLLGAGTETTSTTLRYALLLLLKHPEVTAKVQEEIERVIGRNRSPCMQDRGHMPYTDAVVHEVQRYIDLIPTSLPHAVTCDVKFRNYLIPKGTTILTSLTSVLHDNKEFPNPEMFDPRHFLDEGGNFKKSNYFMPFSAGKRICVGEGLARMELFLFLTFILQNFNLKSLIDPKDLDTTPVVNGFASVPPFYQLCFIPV

[3] = Phase II metabolic stability in S9 fractions; format: in vitro ADME, human
CYP2D6 [4] = molecular target: T2, CYP2D6 (Homo sapiens, UniProt P10635)
T2 sequence (P10635 whole entry): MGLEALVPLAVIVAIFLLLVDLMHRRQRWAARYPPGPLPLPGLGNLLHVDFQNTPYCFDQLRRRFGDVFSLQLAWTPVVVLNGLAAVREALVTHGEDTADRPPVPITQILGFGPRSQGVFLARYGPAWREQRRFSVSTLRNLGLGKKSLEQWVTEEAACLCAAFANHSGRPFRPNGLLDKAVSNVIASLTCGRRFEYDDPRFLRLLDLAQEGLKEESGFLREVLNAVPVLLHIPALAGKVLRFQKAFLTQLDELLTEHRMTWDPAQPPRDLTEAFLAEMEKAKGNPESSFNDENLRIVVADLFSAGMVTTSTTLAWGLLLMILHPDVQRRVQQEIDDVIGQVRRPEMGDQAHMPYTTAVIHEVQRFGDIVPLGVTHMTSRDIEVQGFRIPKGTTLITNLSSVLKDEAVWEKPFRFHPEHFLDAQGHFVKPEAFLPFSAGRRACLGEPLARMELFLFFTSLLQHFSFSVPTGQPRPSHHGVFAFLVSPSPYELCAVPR

CYP2D6 [5] = molecular target: T2, CYP2D6; experiment: biochemical
in vitro = in vitro ADME, human; details: human, Caco-2
CYP1A2 [6] = molecular target: T3, CYP1A2 (Homo sapiens, UniProt P05177)
T3 sequence (P05177 1-516): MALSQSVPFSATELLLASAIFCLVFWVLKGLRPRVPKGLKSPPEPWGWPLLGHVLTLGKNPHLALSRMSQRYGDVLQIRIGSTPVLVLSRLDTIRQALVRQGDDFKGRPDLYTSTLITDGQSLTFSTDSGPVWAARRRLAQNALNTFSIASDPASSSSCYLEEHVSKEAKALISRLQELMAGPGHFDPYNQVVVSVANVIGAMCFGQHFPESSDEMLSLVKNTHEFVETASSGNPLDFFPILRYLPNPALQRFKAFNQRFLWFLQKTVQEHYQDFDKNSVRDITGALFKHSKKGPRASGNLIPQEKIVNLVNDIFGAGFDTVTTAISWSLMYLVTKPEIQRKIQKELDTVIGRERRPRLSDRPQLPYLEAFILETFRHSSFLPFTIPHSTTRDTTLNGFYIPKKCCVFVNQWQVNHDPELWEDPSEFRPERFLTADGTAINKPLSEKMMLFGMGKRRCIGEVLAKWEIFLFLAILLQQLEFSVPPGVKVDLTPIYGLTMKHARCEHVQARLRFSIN

[7] = cited from earlier work
[8] = Stability in simulated gastric fluid; format: in vitro ADME; details: for % RD of diosgenin depletion / % RD of dioscin depletion: RD = relative difference; for Degradation (depletion) in SGF: SGF pH 1.2, end of incubation (b9 prints 3-hour incubation)
[9] = Stability in simulated intestinal fluid; format: in vitro ADME; details: for % RD of diosgenin depletion / % RD of dioscin depletion: RD = relative difference
CYP3A4 = CYP3A4 (Homo sapiens, UniProt P08684); experiment: Inhibition of cytochrome P450 3A4
Sequence of CYP3A4 (P08684 whole entry): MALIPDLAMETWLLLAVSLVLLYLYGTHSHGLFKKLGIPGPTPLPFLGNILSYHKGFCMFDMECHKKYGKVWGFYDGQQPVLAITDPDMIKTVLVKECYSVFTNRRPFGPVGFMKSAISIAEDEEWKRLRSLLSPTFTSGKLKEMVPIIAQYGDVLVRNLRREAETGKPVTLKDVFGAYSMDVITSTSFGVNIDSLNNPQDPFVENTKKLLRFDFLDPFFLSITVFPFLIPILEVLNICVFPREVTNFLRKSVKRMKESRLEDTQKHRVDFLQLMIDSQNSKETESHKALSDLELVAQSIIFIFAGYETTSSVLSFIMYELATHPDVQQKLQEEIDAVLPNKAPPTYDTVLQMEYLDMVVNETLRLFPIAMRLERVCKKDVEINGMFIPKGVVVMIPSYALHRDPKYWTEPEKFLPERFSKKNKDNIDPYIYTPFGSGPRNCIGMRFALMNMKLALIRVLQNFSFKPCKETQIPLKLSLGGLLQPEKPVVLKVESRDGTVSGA

CYP1A2 [10] = molecular target: T3, CYP1A2; experiment: Inhibition of cytochrome P450 1A2
CYP2C19 [11] = molecular target: T1, CYP2C19; experiment: Inhibition of cytochrome P450 2C19; details: words; table prints 2C19
[12] = rat, cited from earlier work
[13] = IC50 3A4, cDNA baculovirus-expressed enzyme, fluorescence substrate
[14] = IC50 CYP3A4, text, catalytic activity of CYP3A4

Papp of Ly (monolayer integrity marker) (Caco-2 cell monolayers; Caco-2): 2.0 ± 0.5 × 10^−6 cm/s
Compound: lucifer yellow [Ly, reference compound]

Compound: C[C@@H]1CC[C@@]2(OC1)O[C@H]1C[C@H]3[C@@H]4CC=C5C[C@@H](O)CC[C@]5(C)[C@H]4CC[C@]3(C)[C@H]1[C@@H]2C [Diosgenin, diosgenin]
Stability in HLM (Phase I) [1]: stable
Effect on CYP 2C9 as printed in text (other CYP enzymes) (CYP2C19 [2]): not affected
Intrinsic clearance in S9 fraction ([3]; S9 fraction, diosgenin 100 μM): 7 mL/min/kg
half-life at 100 μM ([3]; human, s9): 11.3 min
Effect on CYP 2D6 (other CYP enzymes) (CYP2D6 [4]): not affected
IC50 (CYP2D6 [5]): > 50 µM
Papp A→B at 2 h (in vitro): 9.6 ± 0.7 ×10⁻⁶ cm/s
Papp B→A at 2 h (in vitro): 48 ± 4 ×10⁻⁶ cm/s
efflux ratio at 120 min (in vitro): 5
% Transport Absorptive direction (A–B) (Caco-2 cell monolayers): 3.8% and 3.8 ± 0.8%
% Transport Secretory direction (A–B) (Caco-2 cell monolayers): 21% and 21 ± 1%
Intestinal permeability across Caco-2 monolayers (rating) (Caco-2 cell monolayers): moderate
Diosgenin levels in apical or basolateral side (Caco-2 cell monolayers; transport buffer (HBSS) without HPβCD, after 2-hour incubation): no diosgenin levels were detected
Effect on CYP 1A2 (other CYP enzymes) (CYP1A2 [6]): not affected
Aqueous solubility [7]: poor aqueous solubility
% RD of diosgenin depletion ([8]; SGF pH 1.2, 30 min): 3.62%
% RD of diosgenin depletion ([8]; SGF pH 1.2, 60 min): 8.31%
% RD of diosgenin depletion ([8]; SGF pH 1.2, 120 min): 8.59%
Degradation (depletion) in SGF [8]: < 10% and 8.5%
Amount of diosgenin in SGF ([8]; SGF pH 1.2, incubation 0 min): 52.4 ± 0.9 µg/mL
Amount of diosgenin in SGF ([8]; SGF pH 1.2, incubation 30 min): 50.5 ± 0.9 µg/mL
Amount of diosgenin in SGF ([8]; SGF pH 1.2, incubation 60 min): 48.0 ± 1.9 µg/mL
Amount of diosgenin in SGF ([8]; SGF pH 1.2, incubation 120 min): 47.9 ± 1.1 µg/mL
% RD of diosgenin depletion ([9]; SIF pH 6.8, 60 min): 1.28%
% RD of diosgenin depletion ([9]; SIF pH 6.8, 120 min): 4.21%
% RD of diosgenin depletion ([9]; SIF pH 6.8, 180 min): 4.80%
Degradation (disappearance) in SIF ([9]; SIF pH 6.8, after 3 hours of incubation): < 10% and 4.8%
Amount of diosgenin in SIF ([9]; SIF pH 6.8, incubation 0 min): 57.0 ± 1.0 µg/mL
Amount of diosgenin in SIF ([9]; SIF pH 6.8, incubation 60 min): 56.2 ± 1.9 µg/mL
Amount of diosgenin in SIF ([9]; SIF pH 6.8, incubation 120 min): 54.6 ± 2.0 µg/mL
Amount of diosgenin in SIF ([9]; SIF pH 6.8, incubation 180 min): 54.2 ± 3.2 µg/mL
IC50 (CYP3A4; [13]): 17 ± 4 µM
IC50 (CYP3A4; [14]): 21.7 µM
IC50 (CYP1A2 [10]): > 50 µM

Compound: C[C@@H]1CC[C@@]2(OC1)O[C@H]1C[C@H]3[C@@H]4CC=C5C[C@@H](O[C@@H]6O[C@H](CO)[C@@H](O[C@@H]7O[C@@H](C)[C@H](O)[C@@H](O)[C@H]7O)[C@H](O)[C@H]6O[C@@H]6O[C@@H](C)[C@H](O)[C@@H](O)[C@H]6O)CC[C@]5(C)[C@H]4CC[C@]3(C)[C@H]1[C@@H]2C [Dioscin, dioscin]
Compound detected after incubation in HLM ([1]; dioscin 50 μM): more than 50%
Stability in HLM (Phase I) [1]: relatively stable
Effect on CYP 2C9 as printed in text (other CYP enzymes) (CYP2C19 [11]): not affected
Compound detected after incubation in S9 fractions ([3]; S9 fractions, dioscin 50 μM): more than 50%
Stability in S9 fraction (Phase II) ([3]; S9 fractions, words): relatively stable
Effect on CYP 2D6 (other CYP enzymes) (CYP2D6 [4]; words): not affected
IC50 (CYP2D6 [5]): > 50 µM
Papp A→B at 2 h (in vitro): 15 ± 1 ×10⁻⁶ cm/s
Papp B→A at 2 h (in vitro): 20 ± 3 ×10⁻⁶ cm/s
efflux ratio at 120 min (in vitro): 1.3
Efflux across Caco-2 monolayer (Caco-2 cell monolayers; Caco-2, words): no significant efflux
% Transport Absorptive direction (A–B) (Caco-2 cell monolayers): 7.5% and 7.5 ± 0.8%
% Transport Secretory direction (A–B) (Caco-2 cell monolayers): 11% and 11 ± 1%
Intestinal permeability across Caco-2 monolayers (rating) (Caco-2 cell monolayers): moderate
% RD of dioscin depletion ([8]; SGF pH 1.2, 30 min): 16.7%
% RD of dioscin depletion ([8]; SGF pH 1.2, 60 min): 23.6%
% RD of dioscin depletion ([8]; SGF pH 1.2, 120 min): 28.3%
Degradation (depletion) in SGF [8]: 28.3%
Amount of dioscin in SGF ([8]; SGF pH 1.2, incubation 0 min): 45.0 ± 4.0 µg/mL
Amount of dioscin in SGF ([8]; SGF pH 1.2, incubation 30 min): 37.5 ± 1.2 µg/mL
Amount of dioscin in SGF ([8]; SGF pH 1.2, incubation 60 min): 34.4 ± 1.1 µg/mL
Amount of dioscin in SGF ([8]; SGF pH 1.2, incubation 120 min): 32.3 ± 1.0 µg/mL
Dioscin still detected after incubation in SGF ([8]; after 3-hour incubation in SGF as printed): 71.7%
Half-life after oral administration ([12]; oral): 25.6 h
Oral bioavailability [12]: low oral bioavailability
% RD of dioscin depletion ([9]; SIF pH 6.8, 60 min): 4.3%
% RD of dioscin depletion ([9]; SIF pH 6.8, 120 min): 9.9%
% RD of dioscin depletion ([9]; SIF pH 6.8, 180 min): 11.6%
Amount of dioscin in SIF ([9]; SIF pH 6.8, incubation 0 min): 41.1 ± 0.8 µg/mL
Amount of dioscin in SIF ([9]; SIF pH 6.8, incubation 60 min): 39.3 ± 1.0 µg/mL
Amount of dioscin in SIF ([9]; SIF pH 6.8, incubation 120 min): 37.0 ± 1.3 µg/mL
Amount of dioscin in SIF ([9]; SIF pH 6.8, incubation 180 min): 36.3 ± 1.1 µg/mL
IC50 (CYP3A4; [13]): 33 ± 4 µM
IC50 (CYP3A4; [14]): 33.4 µM
IC50 (CYP1A2 [10]): > 50 µM
Effect on CYP 1A2 (other CYP enzymes) (CYP1A2 [10]; words): not affected

Reference: article PMC5592720 (Planta medica, 2013)
